Test results taken from patent publication US7763656B2, “Use of Acetylamino benzoic acid compounds for nonsense suppression and the treatment of disease” (PTC Therapeutics, Inc., priority 2002, dated 2010).

Assays:
[1] = tested on: luciferase reporter construct containing a UGA premature termination codon stably transfected in 293T Human Embryonic Kidney cells; assay: cell-based luciferase reporter assay (UGA premature termination codon); conditions: for Activity: ranking combining potency (minimum concentration to produce protein) and efficacy (maximum protein produced), 293T cells, UGA luciferase reporter, gentamicin internal standard
Protocol: Melting points in Table 1 were obtained on an Electrothermal MeltTemp apparatus and are uncorrected. Activity measurements in Table 1 were performed in a cell-based luciferase reporter assay (as described in Section 4.2) comprising a luciferase reporter construct containing a UGA premature termination codon that was stably transfected in 293T Human Embryonic Kidney cells. Gentamicin, a small molecule known to allow readthrough of premature termination codons, was used as an internal standard. Activity measurements are based on the qualitative relation between the minimum concentration of compound required to produce a given protein in a cell (potency) and the maximum amount of protein produced by the cell (efficacy). Potency and efficacy activities are ranked as either extremely high, very high or significant. The combination of these activities is used to determine the activity ranking.
(§1) Two assays were developed for use in high throughput screens to identify small molecules that promote nonsense suppression. Each assay utilized luciferase because it is a functional reporter gene assay (light is only produced if the protein is functional) and it is extremely sensitive (Light intensity is proportional to luciferase concentration in the nM range). The first assay is a cell-based luciferase reporter assay and the second is a biochemical assay consisting of rabbit reticulocyte lysate and a nonsense-containing luciferase reporter mRNA. In the cell-based assay, a luciferase reporter construct containing a UGA premature termination codon was stably transfected in 293T Human Embryonic Kidney cells. In the biochemical assay, mRNA containing a UGA premature termination codon was used as a reporter in an in vitro translation reaction using rabbit reticulocyte lysate supplemented with tRNA, hemin, creatine kinase, amino acids, KOAc, Mg(OAc)2, and creatine phosphate. […] Synthetic mRNA was prepared in vitro using the T7 promoter and the MegaScript in vitro transcription kit (Ambion).
To determine whether compounds also function in vivo, a stable cell line harboring the UGA nonsense-containing luciferase gene was treated with selected compounds. Cells were grown in standard medium supplemented with 1% penicillin-streptomycin (P/S) and 10% fetal bovine serum (FBS) to 70% confluency and split 1:1 the day before treatment. On the following day, cells were trypsinized and 40,000 cells were added to each well of a 96-well tissue culture dish. Serial dilutions of each compound were prepared to generate a six-point dose response curve spanning 2 logs (30 μM to 0.3 μM). The final concentration of the DMSO solvent remained constant at 1% in each well. Cells treated with 1% DMSO served as the background standard, and cells treated with gentamicin served as a positive control.

[2] = tested on: tripeptidyl-peptidase 1 (TPP-I) in patient-derived LINCL cell line; conditions: patient-derived cell line compound heterozygous for Arg208Stop and another nonsense mutation; maximal; cited from earlier work
[3] = tested on: nonsense-containing luciferase reporter mRNA (UGA premature termination codon) in rabbit reticulocyte lysate; assay: biochemical luciferase nonsense suppression assay (in vitro translation); conditions: internal standard
Excerpt: as §1

[4] = tested on: dystrophin premature stop codon in mdx mice; conditions: cited from earlier work

Molecule	melting point [°C]	also measured
Cc1cc(OCC(=O)Nc2cccc(C(=O)O)c2C)ccc1C(C)C [Compound 59, 3-[2-(4-Isopropyl-3-methyl-phenoxy)-acetylamino]-2-methyl-benzoic acid]	148 to 171	–
CCOC(=O)/C=C/c1ccc(OCC(=O)Nc2cccc(C(=O)O)c2)cc1 [Compound 60, 3-{2-[4-(2-Ethoxycarbonyl-vinyl)-phenoxy]-acetylamino}-benzoic acid]	202 to 203	–
O=C(COc1ccc(OCc2ccccc2)cc1)Nc1cccc(C(=O)O)c1 [Compound 61, 3-[2-(4-Benzyloxy-phenoxy)-acetylamino]-benzoic acid]	208 to 210	–
N#Cc1ccc(OCC(=O)Nc2cccc(C(=O)O)c2)cc1 [Compound 62, 3-[2-(4-Cyano-phenoxy)-acetylamino]-benzoic acid]	210 to 213	–
O=C(COc1ccc(Nc2ccc([N+](=O)[O-])cn2)cc1)Nc1cccc(C(=O)O)c1 [Compound 63, 3-{2-[4-(5-Nitro-pyridin-2-ylamino)-phenoxy]-acetylamino}-benzoic acid]	284 to 285	–
O=C(COc1ccc(NC(=O)c2ccccc2)cc1)Nc1cccc(C(=O)O)c1 [Compound 64, 3-[2-(4-Benzoylamino-phenoxy)-acetylamino]-benzoic acid]	260 to 262	–
O=C(COc1ccc(Nc2ccccc2)cc1)Nc1cccc(C(=O)O)c1 [Compound 65, 3-[2-(4-Phenylamino-phenoxy)-acetylamino]-benzoic acid]	214 to 215	–
O=C(COc1cccc(Nc2ccccc2)c1)Nc1cccc(C(=O)O)c1 [Compound 66, 3-[2-(3-Phenylamino-phenoxy)-acetylamino]-benzoic acid]	189 to 191	–
O=C(COc1ccc(Nc2ccc([N+](=O)[O-])cc2[N+](=O)[O-])cc1)Nc1cccc(C(=O)O)c1 [Compound 67, 3-{2-[4-(2,4-Dinitro-phenylamino)-phenoxy]-acetylamino}-benzoic acid]	237 to 238	–
O=C(COc1ccc(Oc2ccc(C(F)(F)F)cc2)cc1)Nc1cccc(C(=O)O)c1 [Compound 68, 3-{2-[4-(4-Trifluoromethyl-phenoxy)-phenoxy]-acetylamino}-benzoic acid]	189 to 190	–
O=C(COc1ccc(Cc2ccccc2)cc1)Nc1cccc(C(=O)O)c1 [Compound 69, 3-[2-(4-Benzyl-phenoxy)-acetylamino]-benzoic acid]	205 to 209	–
O=C(COc1ccc(Oc2ccccc2)cc1)Nc1cccc(C(=O)O)c1 [Compound 70, 3-[2-(4-Phenoxy-phenoxy)-acetylamino]-benzoic acid]	202 to 205	–
O=C(COc1ccc([N+](=O)[O-])cn1)Nc1cccc(C(=O)O)c1 [Compound 71, 3-[2-(5-Nitro-pyridin-2-yloxy)-acetylamino]-benzoic acid]	233 to 236	Activity [1]: 0
O=C(COc1ccc(CN2C(=O)c3ccccc3C2=O)cc1)Nc1cccc(C(=O)O)c1 [Compound 72]	238 to 240	–
O=C(COc1ccc(COCCCCN2C(=O)c3ccccc3C2=O)cc1)Nc1cccc(C(=O)O)c1 [Compound 73, 3-(2-{4-[4-(1,3-Dioxo-1,3-dihydro-isoindol-2-yl)-butoxymethyl]-phenoxy}-acetylamino)-benzoic acid]	95 to 100	Activity [1]: 0
Cc1cc(C)nc(SCc2ccc(OCC(=O)Nc3cccc(C(=O)O)c3)cc2)n1 [Compound 74, 3-{2-[4-(4,6-Dimethyl-pyrimidin-2-ylsulfanylmethyl)-phenoxy]-acetylamino}-benzoic acid]	194 to 196	Activity [1]: 0
O=C(O)c1cccc(N2CCC(Oc3ccc(Cl)cc3)C2=O)c1 (centres unmarked) [Compound 75, 3-[3-(4-Chloro-phenoxy)-2-oxo-pyrrolidin-1-yl]-benzoic acid]	192 to 193	–

Molecule	melting point [°C]	also measured
O=C(O)c1cccc(N2CCC(Oc3ccc(Br)cc3)C2=O)c1 (centres unmarked) [Compound 76, 3-[3-(4-Bromo-phenoxy)-2-oxo-pyrrolidin-1-yl]-benzoic acid]	196 to 197	–
N#CCc1ccc(OCC(=O)Nc2cccc(C(=O)O)c2)cc1 [Compound 77, 3-[2-(4-Cyanomethyl-phenoxy)-acetylamino]-benzoic acid]	245 to 247	Activity [1]: 0
O=C(COc1ccc(Cc2nn[nH]n2)cc1)Nc1cccc(C(=O)O)c1 [Compound 78, 3-{2-[4-(2H-Tetrazol-5-ylmethyl)-phenoxy]-acetylamino}-benzoic acid]	267 to 268	–
CC(C)c1ccc(COC2CCN(c3cccc(C(=O)O)c3)C2=O)cc1 (centres unmarked) [Compound 79, 3-[3-(4-Isopropyl-benzyloxy)-2-oxo-pyrrolidin-1-yl]-benzoic acid]	170 to 171	–
O=C(COc1ccc(Cc2nnc(-c3ccccc3)o2)cc1)Nc1cccc(C(=O)O)c1 [Compound 80, 3-{2-[4-(5-Phenyl-[1,3,4]oxadiazol-2-ylmethyl)-phenoxy]-acetylamino}-benzoic acid]	207 to 210	Activity [1]: 0
O=C(O)c1cccc(N2CCC(Oc3ccc([N+](=O)[O-])cc3)C2=O)c1 (centres unmarked) [Compound 81, 3-[3-(4-Nitro-phenoxy)-2-oxo-pyrrolidin-1-yl]-benzoic acid]	178 to 180	Activity [1]: 0
COc1ccc(OC2CCN(c3cccc(C(=O)O)c3)C2=O)cc1 (centres unmarked) [Compound 82, 3-[3-(4-Methoxy-phenoxy)-2-oxo-pyrrolidin-1-yl]-benzoic acid]	198 to 201	Activity [1]: 0
CCc1ccc(OC2CCN(c3cccc(C(=O)O)c3)C2=O)cc1 (centres unmarked) [Compound 83, 3-[3-(4-Ethyl-phenoxy)-2-oxo-pyrrolidin-1-yl]-benzoic acid]	194 to 195	–
Cc1ccc(OC2CCN(c3cccc(C(=O)O)c3)C2=O)cc1 (centres unmarked) [Compound 84, 3-[3-(4-Methyl-phenoxy)-2-oxo-pyrrolidin-1-yl]-benzoic acid]	185 to 187	–
Cc1c(F)cc(OC2CCN(c3cccc(C(=O)O)c3)C2=O)c(F)c1F (centres unmarked) [Compound 85, 3-[2-Oxo-3-(2,3,5-trifluoro-4-methyl-phenoxy)-pyrrolidin-1-yl]-benzoic acid]	190 to 191	–
O=C(O)c1cccc(N2CCC(Oc3ccc(OC(F)(F)F)cc3)C2=O)c1 (centres unmarked) [Compound 86, 3-[2-Oxo-3-(4-trifluoromethoxy-phenoxy)-pyrrolidin-1-yl]-benzoic acid]	190 to 191	–
Cc1cc(OC2CCN(c3cccc(C(=O)O)c3)C2=O)cc(C(C)C)c1 (centres unmarked) [Compound 87, 3-[3-(3-Isopropyl-5-methyl-phenoxy)-2-oxo-pyrrolidin-1-yl]-benzoic acid]	134 to 138	–
CC(C)(C)c1ccc(OC2CCN(c3cccc(C(=O)O)c3)C2=O)cc1 (centres unmarked) [Compound 88, 3-[3-(4-tert-Butyl-phenoxy)-2-oxo-pyrrolidin-1-yl]-benzoic acid]	238 to 241	Activity [1]: 0
Cc1ccc(OC2CCN(c3cccc(C(=O)O)c3)C2=O)cc1C (centres unmarked) [Compound 89, 3-[3-(3,4-Dimethyl-phenoxy)-2-oxo-pyrrolidin-1-yl]-benzoic acid]	201 to 205	–
Cc1cc(OCC(=O)Nc2cc(C(=O)O)ccc2Cl)ccc1C(C)C [Example 4, 4-CHLORO-3-[2-(4-ISOPROPYL-3-METHYL-PHENOXY)-ACETYLAMINO]-BENZOIC ACID]	174 to 175	–
gentamicin	–	TPP-I restored [2]: approximately 7 % of normal levels of TPP-I; luciferase activity [3]: increased luciferase activity; luciferase activity ([1]; cell-based assay, internal standard): increased luciferase activity
gentamicin sulfate	–	suppression of translational termination at premature stop codon (dystrophin) [4]: full length dystrophin
